Values joined by “and” are separate entries in the source; they are usually repeats but may differ in a detail not shown here. Equal entries are not always repeated.
Assays:
[1] = system: bone marrow derived macrophages (BMDM); test: Clearance of CSF-1 by bone marrow derived macrophages in vitro (CSF-1 ELISA of conditioned media); format: cell-based, mouse; conditions: for Reduction of rate of CSF-1 consumption: slopes through 4.9 hours
Experimental: COMPOUND 1 was provided as a 10 mM stock in dimethyl sulfoxide (DMSO).Recombinant mouse CSF-1 (416 mL 050) and mouse CSF-1 ELISA (MNC00) were both purchased from R&D Systems Inc., (Minneapolis, Minn.). Mouse bone marrow-derived macrophage (BMDM) were prepared and were plated into 12 well plates in the presence of culture media (αMEM containing 10% FCS and glutamine PenStrep) and 25 ng/mL CSF-1 for three days until approximately 60% confluency was achieved. The cultures were then washed twice with media without CSF-1, and cultured for 2 hrs in the absence of CSF-1 to allow the macrophages to consume CSF-1 that may have been residual to the wells. The cultures were next adjusted to contain CSF-1 and COMPOUND 1 as indicated in Table 1 (Experimental Design) and incubation was continued at 37° C. and 5% CO2. […] At timed-intervals (0, 1.1, 2.3, 4.9, 10.3, 19.9, 29, and 44 hours) 50 μl of conditioned media were removed from each well and saved under refrigeration. After harvest of the last time point, all samples were subjected to CSF-1 ELISA. CSF-1 concentrations (pg/mL) vs time were plotted for each well using linear linear and log linear formats. Consumption was log linear over the first 4.9-hours. Excel was used to calculate a best fit linear equation describing CSF-1 consumption for each well through 4.9 hours and slopes were used to determine the relative rates of consumption.

BMDM = test: CSF-1-induced BMDM proliferation; format: cell-based; conditions: Mus musculus, data not shown, read-out: IC50 for inhibition of CSF-1-induced BMDM proliferation
CSF-1 [2] = test: Plasma CSF-1 biomarker in rats, Example 2 (po bid 5 days); format: in vivo, rat; conditions: 40 mg/kg po bid, control ~75 pg/ml
Experimental: (§1) Groups of female Sprague Dawley rats (n=5) were orally administered 5 or 15 mg/kg of COMPOUND 2 or 40 mg/kg COMPOUND 1 twice per day for 5 consecutive days to characterize compound tolerability. Additional groups of rats, treated with vehicle or 40 mg/kg COMPOUND 1, were terminated one hour after the a.m. dose on Days 1 and 3 for interim analysis of various parameters. Post-mortem analysis of all treated animals included standard necropsy with liver histology evaluation as well as standard hematology and serology. None of the animals were found dead or were euthanized (moribund) prior to scheduled termination. None of the treatments affected body weight or the organ:body weight ratio of selected organs (i.e., liver, thymus, spleen & uterus). […] Both compounds, at the highest dose tested, decreased the number of macrophages in the uterus (up to ˜60% for COMPOUND 2) on Day 5 however, this parameter was highly variable.
On Day 0, the rats were ear tagged, randomized into the treatment groups (Groups 1 & 4: n=15, Groups 2 & 3: n=5), weighed and treated (po, bid) with either vehicle (20% HPbCD) or the test articles as delineated in Table 2 (Allocation of Treatment Groups).
(§2) On Days 1 & 3, one hour after a.m. dose, five rats from Groups 1 and 4 were euthanized using CO2 asphyxiation and exsanguinated via cardiac puncture. Blood samples (˜500 μL) were transferred to separate ethylenediaminetetraacetic acid (EDTA) microtainers and a complete blood count (CBC) was conducted using the Advia 120 Hematology System (Bayer Diagnostics, Tarrytown, N.Y.). Additional blood samples were transferred to separate microtainers (with or without anticoagulant) and processed for biomarker (i.e., MCSF-1) and serologic (i.e., AST/ALT) analysis. The liver and thymus were weighed and discarded. The spleens were weighed and zap-frozen and the uteri (without ovaries attached) were weighed and fixed in 10% buffered formalin. The macrophage content of the uterus was determined immunohistochemically using a macrophage-specific (ED-1) antibody.
On Day 5, rats were euthanized using carbon dioxide and exsanguinated via cardiac puncture. Blood samples (˜500 μL) were collected and processed as described above for CBC, biomarker analysis and serology. The liver, spleen, thymus and uterus (without ovaries attached) were isolated, weighed and fixed in buffered formalin. The right knee with femur attached was isolated, trimmed and fixed in formalin. The left femur was isolated for determination of bone marrow cell counts. Liver histopathology was also conducted.
Differences between treated and control groups were analyzed statistically by ANOVA with a Dunnett's Multiple Comparison post-test. (p value; *:<0.05, **:<0.01).

[3] = system: ED-1 positive macrophages in the uterus; test: Macrophage content of the uterus (ED-1 immunohistochemistry) in rats, Example 2; format: in vivo, rat; conditions: highest dose tested (COMPOUND 2 15 mg/kg, COMPOUND 1 40 mg/kg po bid), Day 5; highly variable
Experimental: as §1, §2
On Day 5, rats were euthanized using carbon dioxide and exsanguinated via cardiac puncture. […]
Differences between treated and control groups were analyzed statistically by ANOVA with a Dunnett's Multiple Comparison post-test. […]

[4] = Tolerability in rats, Example 2; format: in vivo; conditions: 5 or 15 mg/kg COMPOUND 2 or 40 mg/kg COMPOUND 1, po bid, 5 consecutive days
Experimental: as §1, with “variable. […]” for “variable.”
On Days 1 & 3, one hour after a.m. dose, five rats from Groups 1 and 4 were euthanized using CO2 asphyxiation and exsanguinated via cardiac puncture. […] The macrophage content of the uterus was determined immunohistochemically using a macrophage-specific (ED-1) antibody. […]

CSF-1 [5] = test: Plasma CSF-1 after single ascending oral doses in healthy male subjects (Human CSF-1 ELISA); format: in vivo; conditions: individual subjects (placebo subjects not identified); for Plasma CSF-1 Fold Change from Baseline: 1200 mg single oral dose cohort
Experimental: The safety and tolerability of single ascending, oral doses of COMPOUND 1 in healthy male subjects was assessed. Blood samples were collected on Day 1 predose and at 2, 4, 8, 12, 24 and 48 hours postdose and assessed for biomarker. Analysis of the biomarker was performed for all subjects receiving at least one dose of COMPOUND 1 or placebo as set forth in Table 5.
4 mL venous blood samples were collected on Day 1, within 60 minutes (predose), 2, 4, 8, 12, 24, and 48 hours postdose and 3 mL on Day 1 predose, 2 and 8 hours postdose for assessment of the effect of COMPOUND 1 on plasma CSF-1.
Plasma CSF-1 levels were measured using R&D Systems Human CSF-1 ELISA. Samples were diluted 1:5 for assay. Assay range for standards is 31-2000 pg/mL. Maximum measurable plasma concentration is ˜10000 pg/ml. Current maximum measured concentration ˜4000 pg/ml.

Question: What does the source list for `CN(C)CC(=O)N1CCC(c2ccc(NC(=O)c3nc(C#N)c[nH]3)c(C3=CCCCC3)c2)CC1.Cl` [COMPOUND 1]?
Answer: Reduction of rate of CSF-1 consumption ([1]; 0.001 μM, 1 ng/mL CSF-1): 16%; Reduction of rate of CSF-1 consumption ([1]; 0.01 μM, 1 ng/mL CSF-1): 56%; Reduction of rate of CSF-1 consumption ([1]; 0.1 μM, 1 ng/mL CSF-1): 64%; Portion of CSF-1 clearance not inhibited ([1]; 1 uM): ~36%; Reduction of rate of CSF-1 consumption ([1]; 1 μM, 1 ng/mL CSF-1): 64%; IC50 ([1]; Mus musculus, BMDM, 1 ng/mL CSF-1, read-out: Half-maximal inhibition of CSF-1 consumption): 1 to 10 nM; Portion of CSF-1 clearance that can be inhibited ([1]; based on consumption rates, plateau): ~64%; IC50 (BMDM): 2.6 nM; Mean plasma CSF-1 level (CSF-1 [2]; Day 1): 112 pg/mL; Mean plasma CSF-1 level (CSF-1 [2]; Day 3): 314 pg/mL; Mean plasma CSF-1 level (CSF-1 [2]; Day 5): 526 pg/mL; Effect on macrophage content of the uterus [3]: decreased the macrophage content of the uterus; Effect on appearance, behavior, body weight or organ:body weight ratio (liver, spleen, thymus) [4]: did not have an observable effect; Plasma CSF-1 Fold Change from Time 0 (CSF-1 [5]; 150 mg single oral dose cohort, 2 hours postdose): 1.8 fold (2×) and 2.5 fold and 2.0 fold and 0.8 fold (2×) and 0.9 fold; Plasma CSF-1 Fold Change from Time 0 (CSF-1 [5]; 150 mg single oral dose cohort, 4 hours postdose): 2.2 fold and 1.8 fold and 1.9 fold (2×) and 0.8 fold (2×) and 0.9 fold; Plasma CSF-1 Fold Change from Time 0 (CSF-1 [5]; 150 mg single oral dose cohort, 8 hours postdose): 1.4 fold and 2.5 fold and 1.6 fold and 1.0 fold and 0.8 fold and 1.7 fold and 0.7 fold; Plasma CSF-1 Fold Change from Time 0 (CSF-1 [5]; 150 mg single oral dose cohort, 12 hours postdose): 1.5 fold and 1.6 fold and 2.4 fold and 0.9 fold and 0.8 fold and 1.7 fold and 0.7 fold; Plasma CSF-1 Fold Change from Time 0 (CSF-1 [5]; 150 mg single oral dose cohort, 24 hours postdose): 1.4 fold and 1.3 fold and 1.2 fold and 2.0 fold and 0.9 fold and 1.8 fold and 0.7 fold; Plasma CSF-1 Fold Change from Time 0 (CSF-1 [5]; 150 mg single oral dose cohort, 48 hours postdose): 1.2 fold and 1.1 fold and 1.0 fold and 0.8 fold and 1.8 fold and 1.4 fold and 0.6 fold; Plasma CSF-1 Fold Change from Time 0 (CSF-1 [5]; 300 mg single oral dose cohort, 2 hours postdose): 4.6 fold and 0.8 fold and 3.3 fold and 2.7 fold and 0.9 fold and 5.2 fold and 3.4 fold and 1.8 fold; Plasma CSF-1 Fold Change from Time 0 (CSF-1 [5]; 300 mg single oral dose cohort, 4 hours postdose): 4.4 fold (2×) and 1.4 fold and 3.0 fold and 0.7 fold and 6.8 fold and 4.5 fold and 2.6 fold; Plasma CSF-1 Fold Change from Time 0 (CSF-1 [5]; 300 mg single oral dose cohort, 8 hours postdose): 3.8 fold and 0.9 fold and 3.4 fold and 3.0 fold and 1.5 fold and 6.4 fold and 4.1 fold and 1.9 fold; Plasma CSF-1 Fold Change from Time 0 (CSF-1 [5]; 300 mg single oral dose cohort, 12 hours postdose): 2.6 fold and 0.8 fold and 2.2 fold and 3.8 fold and 0.9 fold and 4.5 fold and 3.0 fold and 1.4 fold; Plasma CSF-1 Fold Change from Time 0 (CSF-1 [5]; 300 mg single oral dose cohort, 24 hours postdose): 1.9 fold and 0.9 fold and 1.5 fold (3×) and 1.7 fold and 2.1 fold and 1.1 fold; Plasma CSF-1 Fold Change from Time 0 (CSF-1 [5]; 300 mg single oral dose cohort, 48 hours postdose): 2.3 fold and 1.0 fold and 1.4 fold (2×) and 0.9 fold and 2.2 fold and 1.2 fold and 0.8 fold; Plasma CSF-1 Fold Change from Time 0 (CSF-1 [5]; 600 mg single oral dose cohort, 2 hours postdose): 7.5 fold and 0.7 fold and 2.9 fold and 5.0 fold and 0.9 fold and 6.0 fold and 4.8 fold and 2.3 fold; Plasma CSF-1 Fold Change from Time 0 (CSF-1 [5]; 600 mg single oral dose cohort, 4 hours postdose): 8.7 fold and 1.2 fold; Plasma CSF-1 Fold Change from Baseline (CSF-1 [5]; 2 hours postdose): 5.4 fold and 4.9 fold and 0.8 fold and 4.4 fold (2×) and 6.8 fold and 0.5 fold and 3.5 fold; Plasma CSF-1 Fold Change from Baseline (CSF-1 [5]; 4 hours postdose): 8.9 fold and 8.4 fold and 1.0 fold and 7.6 fold and 9.5 fold and 5.9 fold and 0.4 fold and 5.3 fold; Plasma CSF-1 Fold Change from Baseline (CSF-1 [5]; 8 hours postdose): 9.9 fold and 9.8 fold and 1.0 fold and 11.3 fold and 13.4 fold and 6.9 fold and 0.4 fold and 7.8 fold; Plasma CSF-1 Fold Change from Baseline (CSF-1 [5]; 12 hours postdose): 9.2 fold and 5.2 fold and 2.1 fold and 10.5 fold and 8.8 fold and 5.8 fold and 0.4 fold and 6.0 fold; Plasma CSF-1 Fold Change from Baseline (CSF-1 [5]; 24 hours postdose): 4.7 fold and 1.4 fold and 1.0 fold and 6.1 fold and 2.9 fold and 3.2 fold and 0.4 fold and 1.8 fold; Plasma CSF-1 Fold Change from Baseline (CSF-1 [5]; 48 hours postdose): 2.7 fold (2×) and 1.0 fold and 0.9 fold and 3.3 fold and 2.4 fold and 0.6 fold and 1.6 fold

From US20090148883A1, “BIOMARKER FOR ASSESSING RESPONSE TO FMS TREATMENT” (priority 2007, published 2009)
